“And” between values parts separate entries of the source, which are not always exact repeats. Equal entries are not always repeated.
Tests used:
[1] = Crystal; for Normal melting temperature: DTA; for vapor or sublimation pressure: Calculated from knudsen effusion weight loss
[2] = Molar enthalpy of transition or fusion; conditions: Crystal; DSC

N#Cc1ccccc1Br [2-bromobenzonitrile]
Conditions	Molar enthalpy of transition or fusion [kJ/mol]	Normal melting temperature [°C]
[1]	–	54.0
[2]	17.2	–

N#Cc1ccccc1I [2-iodobenzonitrile]
[1]
Conditions	vapor or sublimation pressure
283.19 K	0.000104 kPa and 0.000103 kPa and 0.000101 kPa
285.15 K	0.000128 kPa and 0.000129 kPa and 0.000125 kPa
287.17 K	0.00016 kPa and 0.000159 kPa and 0.000168 kPa
288.91 K	0.000199 kPa and 0.000205 kPa
291.13 K	0.000263 kPa and 0.000257 kPa and 0.000268 kPa
293.15 K	0.000336 kPa and 0.000341 kPa and 0.000346 kPa
295.15 K	0.000419 kPa and 0.000414 kPa and 0.000427 kPa
297.15 K	0.000521 kPa and 0.000547 kPa
299.12 K	0.000651 kPa and 0.00066 kPa and 0.000671 kPa
301.15 K	0.000857 kPa and 0.000861 kPa and 0.000864 kPa
303.17 K	0.00103 kPa

Conditions	Molar enthalpy of transition or fusion [kJ/mol]	Normal melting temperature [°C]
[1]	–	53.54
[2]	16.6	–

N#Cc1cccc(Br)c1 [3-bromobenzonitrile]
Conditions	Molar enthalpy of transition or fusion [kJ/mol]
[2]	16.6

N#Cc1cccc(I)c1 [3-iodobenzonitrile]
[1]
Conditions	vapor or sublimation pressure
276.18 K	9.88e-05 kPa and 0.0001 kPa and 9.93e-05 kPa
278.16 K	0.000122 kPa and 0.000125 kPa and 0.000123 kPa
280.26 K	0.000161 kPa and 0.00016 kPa and 0.000163 kPa
282.15 K	0.000204 kPa and 0.000206 kPa and 0.000207 kPa
284.15 K	0.000269 kPa
286.17 K	0.00034 kPa and 0.000339 kPa and 0.000336 kPa
288.17 K	0.000437 kPa and 0.000432 kPa and 0.000441 kPa
290.14 K	0.000539 kPa and 0.000537 kPa and 0.00054 kPa
292.13 K	0.00069 kPa and 0.000686 kPa and 0.000699 kPa
294.21 K	0.000869 kPa and 0.000876 kPa and 0.000882 kPa
296.14 K	0.0011 kPa and 0.00111 kPa

Conditions	Molar enthalpy of transition or fusion [kJ/mol]	Normal melting temperature [°C]
[1]	–	40.12
[2]	15.1	–

N#Cc1ccc(Br)cc1 [4-bromobenzonitrile]
Conditions	Molar enthalpy of transition or fusion [kJ/mol]
[2]	20.7

N#Cc1ccc(I)cc1 [4-iodobenzonitrile]
[1]
Conditions	vapor or sublimation pressure
294.17 K	0.000111 kPa and 0.000109 kPa and 0.00011 kPa
296.2 K	0.000141 kPa and 0.000143 kPa
298.18 K	0.000182 kPa
300.18 K	0.000226 kPa and 0.000228 kPa and 0.000223 kPa
302.26 K	0.000294 kPa and 0.000296 kPa
304.29 K	0.000353 kPa and 0.000365 kPa and 0.000368 kPa
306.28 K	0.000452 kPa and 0.000454 kPa and 0.000444 kPa
308.2 K	0.000562 kPa and 0.000563 kPa and 0.000565 kPa
310.15 K	0.000715 kPa and 0.000717 kPa and 0.000701 kPa
312.16 K	0.000889 kPa and 0.000882 kPa
314.05 K	0.00108 kPa and 0.00106 kPa

Conditions	Molar enthalpy of transition or fusion [kJ/mol]	Normal melting temperature [°C]
[1]	–	125.46
[2]	23.6	–
